Blank lines part the entries; values can stand above or below the compound they belong to.
Columns and labels:
[1] = molecular target: T1, PI3K γ (Homo sapiens, UniProt P48736); assay: PI3K lipid kinase inhibition assay (TLC or HTRF), PI3K γ; type: biochemical; conditions: In Vitro
T1 construct: purchased Sigma
Text: (§1) Other commercial kits or systems for assaying PI3K activities are available. […] An exemplary system is PI 3-Kinase (human) HTRF™ Assay from Upstate.

[2] = molecular target: T2, PI3K β (Homo sapiens, UniProt P42338); assay: PI3K lipid kinase inhibition assay (TLC or HTRF), PI3K β; type: biochemical; conditions: In Vitro
T2 construct: purchased Upstate
T2 sequence (P42338 whole entry): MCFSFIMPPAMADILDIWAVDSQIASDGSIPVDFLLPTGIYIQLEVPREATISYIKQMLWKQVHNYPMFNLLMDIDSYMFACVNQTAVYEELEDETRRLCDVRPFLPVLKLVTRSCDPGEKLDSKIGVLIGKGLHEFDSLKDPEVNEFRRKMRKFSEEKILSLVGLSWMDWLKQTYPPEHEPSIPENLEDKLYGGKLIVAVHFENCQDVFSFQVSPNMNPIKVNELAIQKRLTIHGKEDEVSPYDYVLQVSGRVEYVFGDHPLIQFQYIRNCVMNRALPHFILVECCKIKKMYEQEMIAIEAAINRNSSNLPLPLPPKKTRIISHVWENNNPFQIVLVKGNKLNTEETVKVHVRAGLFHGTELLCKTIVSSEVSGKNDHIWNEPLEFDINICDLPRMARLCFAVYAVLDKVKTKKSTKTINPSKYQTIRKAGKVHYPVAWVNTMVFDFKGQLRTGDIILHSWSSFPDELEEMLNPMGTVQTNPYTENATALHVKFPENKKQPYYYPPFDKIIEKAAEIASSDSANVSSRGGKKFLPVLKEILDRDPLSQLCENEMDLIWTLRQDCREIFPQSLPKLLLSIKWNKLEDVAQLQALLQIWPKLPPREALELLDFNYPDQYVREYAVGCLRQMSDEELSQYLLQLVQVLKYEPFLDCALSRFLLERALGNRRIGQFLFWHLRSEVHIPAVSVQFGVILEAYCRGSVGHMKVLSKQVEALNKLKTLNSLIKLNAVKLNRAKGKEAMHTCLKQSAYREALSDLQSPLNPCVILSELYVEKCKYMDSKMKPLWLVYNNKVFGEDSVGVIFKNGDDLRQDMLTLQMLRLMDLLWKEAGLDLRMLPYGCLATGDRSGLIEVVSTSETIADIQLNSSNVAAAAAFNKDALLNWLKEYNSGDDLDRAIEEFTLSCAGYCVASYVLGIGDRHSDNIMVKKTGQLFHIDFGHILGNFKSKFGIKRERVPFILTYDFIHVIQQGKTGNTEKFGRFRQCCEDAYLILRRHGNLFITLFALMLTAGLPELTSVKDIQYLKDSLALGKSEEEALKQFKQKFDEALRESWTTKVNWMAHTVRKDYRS
T2 sequence (P27986 whole entry partner): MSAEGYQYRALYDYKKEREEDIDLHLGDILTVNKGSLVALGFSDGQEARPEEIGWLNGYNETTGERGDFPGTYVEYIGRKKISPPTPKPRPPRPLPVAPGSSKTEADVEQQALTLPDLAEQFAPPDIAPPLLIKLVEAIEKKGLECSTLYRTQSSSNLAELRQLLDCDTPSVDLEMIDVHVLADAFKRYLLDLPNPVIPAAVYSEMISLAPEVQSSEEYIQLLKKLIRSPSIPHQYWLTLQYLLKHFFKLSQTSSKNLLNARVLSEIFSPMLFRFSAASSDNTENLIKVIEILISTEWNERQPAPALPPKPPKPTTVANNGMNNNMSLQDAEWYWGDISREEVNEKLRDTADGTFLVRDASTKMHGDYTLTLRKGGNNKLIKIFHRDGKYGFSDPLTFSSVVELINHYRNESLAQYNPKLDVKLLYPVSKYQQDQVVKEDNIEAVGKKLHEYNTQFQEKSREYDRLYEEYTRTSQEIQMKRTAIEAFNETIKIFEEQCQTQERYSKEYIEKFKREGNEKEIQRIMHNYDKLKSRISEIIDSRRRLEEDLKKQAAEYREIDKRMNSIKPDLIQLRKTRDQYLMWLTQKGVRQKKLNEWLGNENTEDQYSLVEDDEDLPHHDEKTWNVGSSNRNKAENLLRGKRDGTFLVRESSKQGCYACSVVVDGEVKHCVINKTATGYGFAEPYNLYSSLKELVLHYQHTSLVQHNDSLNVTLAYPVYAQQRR
Text: as §1

[3] = test system: OCI-Ly7; conditions: in combination with Compound 292
Procedure: (§2) The method is described as follows. Cells are thawed from a liquid nitrogen preserved state. Once cells have been expanded and divide at their expected doubling times, screening begins. Cells are seeded in growth media in either black 1536-well or 384-well tissue culture treated plates. […] These Tzero (T0) plates are read using ultra-sensitive luminescence on Envision plate readers (Perkin Elmer). […] All data points are collected via automated processes, quality controlled and analyzed using Zalicus software.
(§3) I ranges from 0% (when T=V) to 100% (when T=0). […] The measure of effect in the experiment can be the inhibition of cellular response relative to the untreated level (vehicle alone). For untreated vehicle and treated levels V and T, a fractional inhibition 1=1−T/V is calculated. The inhibition ranges from 0% at the untreated level to 100% when T=0 Inhibition levels are negative for agents that actually increase levels. Other effect measures, such as an activity ratio r=T/V may be more appropriate for some assays. When activity ratios (e.g, fold increase over […] control) are being used, the effect can be measured using an induction I=1n(T/V). With this definition, all effect expressions are the same as for inhibition.
(§4) Growth Inhibition (GI) is used as a measure of cell viability. […] A GI reading of 100% represents complete growth inhibition-T72 compound-treated and T0 vehicle signals are matched. […] A GI reading of 200% represents complete death of all cells in the culture well. Compounds reaching an activity plateau of GI 200% are considered cytotoxic. GI is calculated by applying the following test and equation: […]
(§5) Combination analysis data were collected in a 6×6 dose matrix. Synergy is calculated by comparing a combination's response to those of its single compound, against the drug-with-itself dose-additive reference model. Deviations from dose additivity may be assessed visually on an isobologram or numerically with a Combination Index (CI). […] Additive effect is CI=1.0. […] Antagonistic effect is CI>1.0.
(§6) To measure combination effects in excess of Loewe additivity, a scalar measure to characterize the strength of synergistic interaction termed the Synergy Score is devised. The Synergy Score is calculated as: […]
(§7) The fractional inhibition for each component agent and combination point in the matrix is calculated relative to the median of all vehicle-treated control wells. The Synergy Score equation integrates the experimentally-observed activity volume at each point in the matrix in excess of a model surface numerically derived from the activity of the component agents using the Loewe model for additivity. Additional terms in the Synergy Score equation (above) are used to normalize for various dilution factors used for individual agents and to allow for comparison of synergy scores across an entire experiment. The inclusion of positive inhibition gating or an Idata multiplier removes noise near the zero effect level, and biases results for synergistic interactions at that occur at high activity levels.
(§8) Loewe Volume (Loewe Vol) is used to assess the overall magnitude of the combination interaction in excess of the Loewe additivity model. Loewe Volume is particularly useful when distinguishing synergistic increases in a phenotypic activity (positive Loewe Volume) versus synergistic antagonisms (negative Loewe Volume). […] This model defines additivity as a non-synergistic combination interaction where the combination dose matrix surface should be indistinguishable from either drug crossed with itself.

[4] = test system: OCI-LY3; conditions: in combination with Compound 292
Procedure: as §2, §3, §4, §5, §6, §7, §8

[5] = test system: WSU-NHL; conditions: in combination with Compound 292
Procedure: as §2, §3, §4, §5, §6, §7, §8

[6] = test system: U-2932; conditions: in combination with Compound 292
Procedure: as §2, §3, §4, §5, §6, §7, §8

[7] = test system: KARPAS-299; conditions: in combination with Compound 292
Procedure: as §2, §3, §4, §5, §6, §7, §8

[8] = test system: KARPAS-422; conditions: in combination with Compound 292
Procedure: as §2, §3, §4, §5, §6, §7, §8

[9] = test system: SU-DHL-10-epst; conditions: in combination with Compound 292
Procedure: as §2, §3, §4, §5, §6, §7, §8

[10] = test system: Farage; conditions: in combination with Compound 292
Procedure: as §2, §3, §4, §5, §6, §7, §8

[11] = test system: SU-DHL-4-epst; conditions: in combination with Compound 292
Procedure: as §2, §3, §4, §5, §6, §7, §8

[12] = test system: Mino; conditions: in combination with Compound 292
Procedure: as §2, §3, §4, §5, §6, §7, §8

[13] = test system: DOHH-2; conditions: in combination with Compound 292
Procedure: as §2, §3, §4, §5, §6, §7, §8

[14] = test system: GRANTA-519; conditions: in combination with Compound 292
Procedure: as §2, §3, §4, §5, §6, §7, §8

[15] = test system: NCI-H929; conditions: in combination with Compound 292
Procedure: as §2, §3, §4, §5, §6, §7, §8

[16] = test system: HH; conditions: in combination with Compound 292
Procedure: as §2, §3, §4, §5, §6, §7, §8

[17] = test system: Jeko-1; conditions: in combination with Compound 292
Procedure: as §2, §3, §4, §5, §6, §7, §8

[18] = test system: HBL-1; conditions: in combination with Compound 292
Procedure: as §2, §3, §4, §5, §6, §7, §8

[19] = test system: TMD8; conditions: in combination with Compound 292
Procedure: as §2, §3, §4, §5, §6, §7, §8

[20] = test system: OPM-2; conditions: in combination with Compound 292
Procedure: as §2, §3, §4, §5, §6, §7, §8

[21] = test system: RL; assay: Combination with BTK inhibitor, 72 h ATPLite, 6x6 dose matrix (follicular lymphoma); type: cell-based; conditions: in combination with Compound 292
Procedure: as §2, §3, §4, §5, §6, §7, §8

[22] = test system: RPMI-8226; assay: Combination with BTK inhibitor, 72 h ATPLite, 6x6 dose matrix (multiple myeloma); type: cell-based; conditions: in combination with Compound 292
Procedure: as §2, §3, §4, §5, §6
The fractional inhibition for each component agent and combination point in the matrix is calculated relative to the median of all vehicle-treated control wells. The Synergy Score equation integrates the experimentally-observed activity volume at each point in the matrix in excess of a model surface numerically derived from the activity of the component agents using the Loewe model for additivity. […]

[23] = molecular target: PI3K δ (Homo sapiens, UniProt O00329); assay: PI3K lipid kinase inhibition assay (TLC or HTRF), PI3K δ; type: biochemical; design: purchased Upstate; conditions: In Vitro
PI3K δ, sequence (O00329 whole entry): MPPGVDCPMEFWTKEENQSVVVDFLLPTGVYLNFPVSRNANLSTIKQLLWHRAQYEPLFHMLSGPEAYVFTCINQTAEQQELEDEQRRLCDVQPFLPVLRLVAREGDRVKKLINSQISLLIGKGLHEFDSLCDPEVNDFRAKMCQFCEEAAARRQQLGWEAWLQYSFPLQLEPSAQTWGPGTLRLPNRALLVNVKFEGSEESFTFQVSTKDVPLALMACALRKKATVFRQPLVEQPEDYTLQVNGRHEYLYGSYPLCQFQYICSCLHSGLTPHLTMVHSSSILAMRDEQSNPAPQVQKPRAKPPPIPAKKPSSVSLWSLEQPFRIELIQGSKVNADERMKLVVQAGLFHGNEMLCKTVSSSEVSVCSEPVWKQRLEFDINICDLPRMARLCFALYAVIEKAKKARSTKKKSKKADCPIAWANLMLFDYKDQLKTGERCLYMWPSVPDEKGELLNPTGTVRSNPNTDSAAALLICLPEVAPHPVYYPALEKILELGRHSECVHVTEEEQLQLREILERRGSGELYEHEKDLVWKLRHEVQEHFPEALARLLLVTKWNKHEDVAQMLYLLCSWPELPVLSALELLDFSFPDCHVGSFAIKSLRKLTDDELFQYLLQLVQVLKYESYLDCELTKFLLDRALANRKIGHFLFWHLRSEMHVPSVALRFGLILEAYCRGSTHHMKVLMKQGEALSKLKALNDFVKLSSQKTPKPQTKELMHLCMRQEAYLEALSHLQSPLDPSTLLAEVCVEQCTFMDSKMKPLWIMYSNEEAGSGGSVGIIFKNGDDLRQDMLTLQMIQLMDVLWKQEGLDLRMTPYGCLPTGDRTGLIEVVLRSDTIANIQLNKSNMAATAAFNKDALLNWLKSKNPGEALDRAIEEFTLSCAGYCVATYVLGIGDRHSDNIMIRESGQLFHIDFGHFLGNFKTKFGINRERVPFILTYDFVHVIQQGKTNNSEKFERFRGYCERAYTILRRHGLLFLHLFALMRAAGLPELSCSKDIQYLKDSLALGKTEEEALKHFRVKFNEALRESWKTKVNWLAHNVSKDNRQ
PI3K δ, sequence (P27986 whole entry partner): as the sequence (P27986 whole entry partner) above
Text: as §1

[24] = molecular target: T3, PI3K α (Homo sapiens, UniProt P42336); assay: PI3K lipid kinase inhibition assay (TLC or HTRF), PI3K α; type: biochemical; conditions: In Vitro
T3 construct: purchased Upstate
T3 sequence (P42336 whole entry): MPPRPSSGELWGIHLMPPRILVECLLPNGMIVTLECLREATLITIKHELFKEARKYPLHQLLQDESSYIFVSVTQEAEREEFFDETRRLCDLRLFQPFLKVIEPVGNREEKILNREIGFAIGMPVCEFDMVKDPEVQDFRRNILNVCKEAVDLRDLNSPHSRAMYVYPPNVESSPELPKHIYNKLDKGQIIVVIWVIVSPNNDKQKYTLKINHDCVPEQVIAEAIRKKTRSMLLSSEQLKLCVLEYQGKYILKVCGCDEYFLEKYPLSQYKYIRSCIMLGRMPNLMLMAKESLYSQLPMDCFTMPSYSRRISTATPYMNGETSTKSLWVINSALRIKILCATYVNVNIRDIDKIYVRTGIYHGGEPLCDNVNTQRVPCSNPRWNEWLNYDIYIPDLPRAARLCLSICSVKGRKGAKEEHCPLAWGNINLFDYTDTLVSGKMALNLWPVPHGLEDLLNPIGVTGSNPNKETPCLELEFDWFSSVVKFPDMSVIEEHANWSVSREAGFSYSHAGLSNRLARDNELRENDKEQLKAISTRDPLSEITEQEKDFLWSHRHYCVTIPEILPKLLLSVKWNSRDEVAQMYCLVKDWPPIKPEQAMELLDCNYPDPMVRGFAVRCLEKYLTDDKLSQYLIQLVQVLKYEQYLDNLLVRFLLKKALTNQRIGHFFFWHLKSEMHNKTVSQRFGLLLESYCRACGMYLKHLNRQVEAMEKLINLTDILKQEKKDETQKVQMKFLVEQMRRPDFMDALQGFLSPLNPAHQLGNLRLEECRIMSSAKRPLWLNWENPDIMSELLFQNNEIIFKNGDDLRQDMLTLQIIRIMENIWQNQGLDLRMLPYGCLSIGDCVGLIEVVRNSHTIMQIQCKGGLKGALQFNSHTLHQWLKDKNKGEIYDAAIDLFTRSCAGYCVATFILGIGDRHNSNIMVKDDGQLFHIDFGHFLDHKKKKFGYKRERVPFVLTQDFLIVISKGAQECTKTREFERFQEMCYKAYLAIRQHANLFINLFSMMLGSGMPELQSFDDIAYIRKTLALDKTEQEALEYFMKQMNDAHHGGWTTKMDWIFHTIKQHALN
T3 sequence (P27986 whole entry partner): as the sequence (P27986 whole entry partner) above
Text: as §1

T1 sequence (P48736 whole entry): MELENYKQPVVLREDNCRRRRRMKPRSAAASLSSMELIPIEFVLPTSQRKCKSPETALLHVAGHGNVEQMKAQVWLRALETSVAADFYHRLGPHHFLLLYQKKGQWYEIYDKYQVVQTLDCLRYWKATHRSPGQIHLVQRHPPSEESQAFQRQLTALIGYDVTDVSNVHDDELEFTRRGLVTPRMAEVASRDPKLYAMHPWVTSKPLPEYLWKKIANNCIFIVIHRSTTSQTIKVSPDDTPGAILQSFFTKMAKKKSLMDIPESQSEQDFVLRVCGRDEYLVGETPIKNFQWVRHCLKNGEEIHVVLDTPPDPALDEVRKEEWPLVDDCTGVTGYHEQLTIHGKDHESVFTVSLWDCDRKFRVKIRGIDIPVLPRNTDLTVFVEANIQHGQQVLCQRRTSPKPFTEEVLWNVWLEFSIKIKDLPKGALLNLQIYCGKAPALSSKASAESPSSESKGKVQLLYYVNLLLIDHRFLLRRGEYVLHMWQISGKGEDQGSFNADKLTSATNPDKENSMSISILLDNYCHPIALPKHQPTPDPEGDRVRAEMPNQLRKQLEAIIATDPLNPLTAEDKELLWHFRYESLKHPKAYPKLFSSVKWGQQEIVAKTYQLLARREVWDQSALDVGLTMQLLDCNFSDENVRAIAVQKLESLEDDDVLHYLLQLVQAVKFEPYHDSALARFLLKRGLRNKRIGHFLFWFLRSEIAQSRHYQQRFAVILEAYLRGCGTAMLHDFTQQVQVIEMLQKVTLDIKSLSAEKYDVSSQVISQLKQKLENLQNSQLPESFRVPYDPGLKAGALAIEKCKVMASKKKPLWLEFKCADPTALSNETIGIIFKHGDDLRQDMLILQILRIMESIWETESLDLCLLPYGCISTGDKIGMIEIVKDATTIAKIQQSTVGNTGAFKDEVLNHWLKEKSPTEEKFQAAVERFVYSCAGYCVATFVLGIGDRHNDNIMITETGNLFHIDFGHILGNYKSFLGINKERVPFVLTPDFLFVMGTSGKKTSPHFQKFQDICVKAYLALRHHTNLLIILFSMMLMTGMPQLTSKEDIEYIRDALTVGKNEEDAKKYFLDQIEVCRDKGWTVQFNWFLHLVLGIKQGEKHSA

IC50 [1]: < 1000 nM
IC50 [2]: > 10000 nM
SMILES: Cc1ccccc1-n1c(Cn2nc(I)c3c(N)ncnc32)cc2cccc(C)c2c1=O [Compound 104]

SMILES: C=CC(=O)Nc1cccc(Nc2nc(Nc3ccc(OCCOC)cc3)ncc2F)c1 [AVL-292, N-(3-((5-fluoro-2-((4-(2-methoxyethoxy)phenyl)amino)pyrimidin-4-yl)amino)phenyl)acrylamide]
CI50 (growth inhibition) [3]: W (W=≧1)
Synergy Score (growth inhibition) [3]: A1 (A1=0.0001 to <1)
Synergy Score (inhibition) [3]: A1 (A1=0.0001 to <1)
CI50 (growth inhibition) [4]: U (U=0.7 to <1)
Synergy Score (growth inhibition) [4]: A1 (A1=0.0001 to <1)
Synergy Score (inhibition) [4]: A1 (A1=0.0001 to <1)
CI50 (growth inhibition) [5]: T (T=0.5 to <0.7)
CI50 (inhibition) [5]: S (S=0.01 to <0.5)
Synergy Score (growth inhibition) [5]: A3 (A3=>3)
Synergy Score (inhibition) [5]: A2 (A2=1 to <3)
CI50 (growth inhibition) [6]: T (T=0.5 to <0.7)
CI50 (inhibition) [6]: W (W=≧1)
Synergy Score (growth inhibition) [6]: A2 (A2=1 to <3)
Synergy Score (inhibition) [6]: A1 (A1=0.0001 to <1)
CI50 (growth inhibition) [7]: U (U=0.7 to <1)
Synergy Score (growth inhibition) [7]: A1 (A1=0.0001 to <1)
Synergy Score (inhibition) [7]: A1 (A1=0.0001 to <1)
CI50 (growth inhibition) [8]: U (U=0.7 to <1)
CI50 (inhibition) [8]: T (T=0.5 to <0.7)
Synergy Score (growth inhibition) [8]: A2 (A2=1 to <3)
Synergy Score (inhibition) [8]: A1 (A1=0.0001 to <1)
CI50 (growth inhibition) [9]: T (T=0.5 to <0.7)
CI50 (inhibition) [9]: T (T=0.5 to <0.7)
Synergy Score (growth inhibition) [9]: A3 (A3=>3)
Synergy Score (inhibition) [9]: A2 (A2=1 to <3)
CI50 (growth inhibition) [10]: S (S=0.01 to <0.5)
CI50 (inhibition) [10]: S (S=0.01 to <0.5)
Synergy Score (growth inhibition) [10]: A3 (A3=>3)
Synergy Score (inhibition) [10]: A2 (A2=1 to <3)
CI50 (growth inhibition) [11]: T (T=0.5 to <0.7)
CI50 (inhibition) [11]: S (S=0.01 to <0.5)
Synergy Score (growth inhibition) [11]: A2 (A2=1 to <3)
Synergy Score (inhibition) [11]: A2 (A2=1 to <3)
CI50 (growth inhibition) [12]: S (S=0.01 to <0.5)
CI50 (inhibition) [12]: S (S=0.01 to <0.5)
Synergy Score (growth inhibition) [12]: A3 (A3=>3)
Synergy Score (inhibition) [12]: A2 (A2=1 to <3)
CI50 (growth inhibition) [13]: T (T=0.5 to <0.7)
CI50 (inhibition) [13]: T (T=0.5 to <0.7)
Synergy Score (growth inhibition) [13]: A3 (A3=>3)
Synergy Score (inhibition) [13]: A2 (A2=1 to <3)
CI50 (growth inhibition) [14]: W (W=≧1)
Synergy Score (growth inhibition) [14]: A1 (A1=0.0001 to <1)
Synergy Score (inhibition) [14]: A1 (A1=0.0001 to <1)
CI50 (growth inhibition) [15]: U (U=0.7 to <1)
CI50 (inhibition) [15]: U (U=0.7 to <1)
Synergy Score (growth inhibition) [15]: A2 (A2=1 to <3)
Synergy Score (inhibition) [15]: A1 (A1=0.0001 to <1)
CI50 (growth inhibition) [16]: T (T=0.5 to <0.7)
CI50 (inhibition) [16]: U (U=0.7 to <1)
Synergy Score (growth inhibition) [16]: A2 (A2=1 to <3)
Synergy Score (inhibition) [16]: A2 (A2=1 to <3)
CI50 (growth inhibition) [17]: U (U=0.7 to <1)
CI50 (inhibition) [17]: U (U=0.7 to <1)
Synergy Score (growth inhibition) [17]: A1 (A1=0.0001 to <1)
Synergy Score (inhibition) [17]: A1 (A1=0.0001 to <1)
CI50 (growth inhibition) [18]: T (T=0.5 to <0.7)
CI50 (inhibition) [18]: W (W=≧1)
Synergy Score (growth inhibition) [18]: A2 (A2=1 to <3)
Synergy Score (inhibition) [18]: A1 (A1=0.0001 to <1)
CI50 (growth inhibition) [19]: S (S=0.01 to <0.5)
CI50 (inhibition) [19]: S (S=0.01 to <0.5)
Synergy Score (growth inhibition) [19]: A3 (A3=>3)
Synergy Score (inhibition) [19]: A2 (A2=1 to <3)
CI50 (growth inhibition) [20]: T (T=0.5 to <0.7)
CI50 (inhibition) [20]: U (U=0.7 to <1)
Synergy Score (growth inhibition) [20]: A2 (A2=1 to <3)
Synergy Score (inhibition) [20]: A1 (A1=0.0001 to <1)
Synergy Score (growth inhibition) [21]: A1 (A1=0.0001 to <1)
Synergy Score (inhibition) [21]: A1 (A1=0.0001 to <1)
CI50 (growth inhibition) [22]: U (U=0.7 to <1)
CI50 (inhibition) [22]: W (W=≧1)
Synergy Score (growth inhibition) [22]: A1 (A1=0.0001 to <1)
Synergy Score (inhibition) [22]: A1 (A1=0.0001 to <1)

IC50 [23]: < 10000 nM
SMILES: Cc1cccc2cc(Cn3nc(I)c4c(N)ncnc43)n(C(C)C)c(=O)c12 [Compound 129]

SMILES: CC(=O)Nc1nc2ccc(-c3nn(Cc4cc5cccc(C)c5c(=O)n4-c4ccccc4C)c4ncnc(N)c34)cc2s1 [Compound 168]
IC50 [24]: < 10000 nM

IC50 [24]: < 10000 nM
IC50 [1]: < 100 nM
IC50 [2]: < 10000 nM
SMILES: Cc1cccc2cc(Cn3nc(-c4ccc5nc(N)oc5c4)c4c(N)ncnc43)n(-c3ccccc3)c(=O)c12 [Compound 235]

SMILES: Cc1ccccc1-n1c(Cn2nc(-c3cc(O)cc(F)c3)c3c(N)ncnc32)cc2cccc(C)c2c1=O [Compound 113]
IC50 [2]: < 10000 nM

IC50 [23]: < 100 nM
SMILES: Cc1ccccc1-n1c(Cn2nc(-c3cccc(O)c3)c3c(N)nccc32)cc2cccc(C)c2c1=O [Compound 119]
